Laboratory results from patent publication US10221138B2, “Biaryl derivatives as GPR120 agonists” (LG CHEM, LTD., priority 2013, dated 2019).

The compounds below were run against T1, hGPR120 (Homo sapiens, UniProt Q5NUL3) (assay: Measurement of activity of GPR120 agonist (cell-based calcium fluorescence assay)). Conditions: CHO-K1 cells expressing Ga16 and hGPR120, Calcium 5 dye fluorescence; activity class; read-out: EC50.
T1 construct: expressed in transfected cells; host or cells: CHO-K1
T1 sequence (Q5NUL3 1-361): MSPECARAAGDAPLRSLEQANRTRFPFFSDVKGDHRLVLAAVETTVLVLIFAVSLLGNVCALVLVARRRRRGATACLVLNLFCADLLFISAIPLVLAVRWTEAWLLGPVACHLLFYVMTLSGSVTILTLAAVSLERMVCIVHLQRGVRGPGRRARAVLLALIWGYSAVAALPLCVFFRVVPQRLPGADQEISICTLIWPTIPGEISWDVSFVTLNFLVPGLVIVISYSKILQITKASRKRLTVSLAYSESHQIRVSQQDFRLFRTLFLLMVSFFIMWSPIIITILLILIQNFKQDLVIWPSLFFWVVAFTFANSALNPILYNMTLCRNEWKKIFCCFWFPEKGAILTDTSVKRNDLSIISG
How it was run: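 CHO-K1 cells co-expressing Gα16 and hGPR120, plated 18 h, loaded with Calcium 5 dye for 1 h at 37 °C, then given serially diluted agonists (final 0.5% DMSO). Fluorescence increase expressed as relative % of the 1% DMSO-only signal.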

First: O=C(O)CCCOc1ccc(-c2cccc(OC3CCCC3)c2)nc1 [Example 36, 4-[[6-[3-(cyclopentoxy)phenyl]-3-pyridyl]oxy]butyric acid]
Second: O=C(O)CCCCSc1ccc(-c2cccnc2OC2CCCC2)cc1 [Example 254, 5-[4-(2-cyclopentyloxy-pyridin-3-yl)-phenylsulfanyl]-pentanoic acid]
The EC50 of the first is higher: 200 to 2000 nM for the first, < 200 nM for the second. The second is the more potent here.

`O=C(O)CCCSc1c(F)cc(-c2cccc(OC3CCC3)n2)cc1F` [Example 154, 4-[4-(6-cyclobutoxy-pyridin-2-yl)-2,6-difluoro-phenylsulfanyl]-butyric acid] and `O=C(O)CCCOc1c(F)cc(-c2cccc(OCC3CC3)n2)cc1F` [Example 24, 4-[4-[6-(cyclopropylmethoxy)-2-pyridyl]-2,6-difluoro-phenoxy]butyric acid] cannot be ordered by EC50: < 200 nM for the first, < 200 nM for the second.

`CC(C)(C)COc1ncccc1-c1cc(F)c(OCCCC(=O)O)c(F)c1` [Example 231, 4-{4-[2-(2,2-dimethy-propoxy)-pyridin-3-yl]-2,6-difluoro-phenoxy}-butyric acid] and `C=CCOc1ncccc1-c1cc(F)c(OCCCC(=O)O)c(F)c1` [Example 269, 4-[4-(2-allyloxy-pyridin-3-yl)-2,6-difluoro-phenoxy]-butyric acid] fall in the same range of EC50: 200 to 2000 nM for the first, 200 to 2000 nM for the second.

Compared with `CC(C)Oc1ccccc1-c1cc(F)c(OCCCC(=O)O)c(F)c1` [Example 52, 4-(3,5-difluoro-2′-isopropoxy-biphenyl-4-yloxy)-butyric acid], `CC(C)Nc1cccc(-c2cc(F)c(OCCCC(=O)O)c(F)c2)c1` [Example 91, 4-[2,6-difluoro-4-[3-(isopropylamino)phenyl]phenoxy]butanoic acid] is lower in EC50: 200 to 2000 nM for the first, < 200 nM for the second.

`O=C(O)CCCOc1c(F)cc(-c2cccnc2SCC2CC2)cc1F` [Example 47, 4-[4-(2-cyclopropylmethylsulfanyl-pyridin-3-yl)-2,6-difluoro-phenoxy]-butyric acid] and `CCSc1ncccc1-c1cc(F)c(OCCCC(=O)O)c(F)c1` [Example 206, 4-[4-(2-ethylsulfanyl-pyridin-3-yl)-2,6-difluoro-phenoxy]-butanoic acid] cannot be ordered by EC50: < 200 nM for the first, < 200 nM for the second.

`O=C(O)CCCSc1ccc(-c2cccnc2NC2CCCC2)cc1F` [Example 170, 4-[4-(2-cyclopentylamino-pyridin-3-yl)-2-fluoro-phenylsulfanyl]-butyric acid] and `Cc1cnc(OC2CCCC2)c(-c2ccc(SCCCC(=O)O)c(F)c2)c1` [Example 186, 4-[4-(2-cyclopentyloxy-5-methyl-pyridin-3-yl)-2-fluoro-phenylsulfanyl]-butyric acid] cannot be ordered by EC50: < 200 nM for the first, < 200 nM for the second.

`COCCOc1ncccc1-c1cc(F)c(OCCCC(=O)O)c(F)c1` [Example 71, 4-{2,6-difluoro-4-[2-(2-methoxy-ethoxy)-pyridin-3-yl]-phenoxy}-butyric acid] and `CC#CCOc1ncccc1-c1cc(F)c(OCCCC(=O)O)c(F)c1` [Example 270, 4-[4-(2-but-2-ynyloxy-pyridin-3-yl)-2,6-difluoro-phenoxy]-butyric acid] fall in the same range of EC50: 2000 to 20000 nM for the first, 2000 to 20000 nM for the second.

`O=C(O)CCCCCSc1c(F)cc(-c2cccnc2SC2CCC2)cc1F` [Example 278, 6-[4-(2-cyclobutylsulfanyl-pyridin-3-yl)-2,6-difluoro-phenylsulfanyl]-hexanoic acid] and `CCCSc1ncccc1-c1cc(F)c(SCCCCCC(=O)O)c(F)c1` [Example 279, 6-[2,6-difluoro-4-(2-propylsulfanyl-pyridin-3-yl)-phenylsulfanyl]-hexanoic acid] fall in the same range of EC50: 200 to 2000 nM for the first, 200 to 2000 nM for the second.

First: Cc1cnc(OC(C)C)c(-c2ccc(SCCCC(=O)O)c(F)c2)c1 [Example 187, 4-[2-fluoro-4-(2-isopropoxy-5-methyl-pyridin-3-yl)-phenylsulfanyl]-butyric acid]
Second: Cc1ccc(-c2ccc(SCCCC(=O)O)c(F)c2)c(OC2CCCC2)n1 [Example 189, 4-[4-(2-cyclopentyloxy-6-methyl-pyridin-3-yl)-2-fluoro-phenylsulfanyl]-butyric acid]
The EC50 of the first is lower: < 200 nM for the first, 200 to 2000 nM for the second. The first is the more potent here.

First: O=C(O)CCCOc1c(F)cc(-c2cccnc2N2CCOCC2)cc1F [Example 111, 4-[2,6-difluoro-4-(2-morpholino-3-pyridyl)phenoxy]butanoic acid]
Second: O=C(O)CCCOc1c(F)cc(-c2cccnc2N2CCCC2)cc1F [Example 72, 4-[2,6-difluoro-4-(2-pyrrolidin-1-yl-3-pyridyl)phenoxy]butanoic Acid]
The EC50 of the first is higher: > 20000 nM for the first, 200 to 2000 nM for the second. The second is the more potent here.

First: CCCSc1ncccc1-c1cc(F)c(SCCCC(=O)O)c(F)c1 [Example 168, 4-[2,6-difluoro-4-(2-propylsulfanyl-pyridin-3yl)-phenylsulfanyl]-butyric acid]
Second: CC(C)CCSc1ncccc1-c1cc(F)c(OCCCC(=O)O)c(F)c1 [Example 31, 4-{2,6-difluoro-4-[2-(3-methyl-butylsulfanyl)-pyridin-3-yl]-phenoxy}-butyric acid]
The EC50 of the first is lower: < 200 nM for the first, 200 to 2000 nM for the second. The first is the more potent here.

Compared with `O=C(O)CCCOc1c(F)cc(-c2cccnc2OCC2CCOC2)cc1F` (stereo not shown) [Example 222, 4-[2,6-difluoro-4-[2-(tetrahydrofuran-3-ylmethoxy)-3-pyridyl]phenoxy]butanoic acid], `O=C(O)CCCOc1c(F)cc(-c2cccnc2OC2CC2)cc1F` [Example 225, 4-[4-(2-cyclopropoxy-pyridin-3-yl)-2,6-difluoro-phenoxy]-butyric acid] is lower in EC50: 2000 to 20000 nM for the first, 200 to 2000 nM for the second.

First: CN1CCN(c2ncccc2-c2cc(F)c(OCCCC(=O)O)c(F)c2)CC1 [Example 216, 4-[2,6-difluoro-4-[2-(4-methylpiperazin-1-yl)-3-pyridyl]phenoxy]butanoic acid]
Second: O=C(O)CCCOc1c(F)cc(-c2cccnc2N2CCC(F)(F)C2)cc1F [Example 215, 4-[4-[2-(3,3-difluoropyrrolidin-1-yl)-3-pyridyl]-2,6-difluoro-phenoxy]butanoic acid]
The EC50 of the first is higher: > 20000 nM for the first, 200 to 2000 nM for the second. The second is the more potent here.

`O=C(O)CCCSc1ccc(-c2cccnc2OC2CCC2)cc1` [Example 143, 4-[4-(2-cyclobutoxy-pyridin-3-yl)-phenylsulfanyl]-butyric acid] and `O=C(O)CCCSc1ccc(-c2cccc(SC3CCCC3)n2)cc1` [Example 133, 4-[4-(6-cyclopentylsulfanyl-pyridin-2-yl)-phenylsulfanyl]-butyric acid] fall in the same range of EC50: 200 to 2000 nM for the first, 200 to 2000 nM for the second.

First: O=C(O)CCCOc1c(F)cc(-c2cccnc2OC2CCOCC2)cc1F [Example 68, 4-{2,6-difluoro-4-[2-(tetrahydro-pyran-4-yloxy)-pyridin-3-yl]-phenoxy}-butyric acid]
Second: O=C(O)CCCOc1c(F)cc(-c2cccnc2OC2CCCC2)cc1F [Example 44, 4-[4-(2-cyclopentyloxy-pyridin-3-yl)-2,6-difluoro-phenoxy]-butyric acid]
The EC50 of the first is higher: 200 to 2000 nM for the first, < 200 nM for the second. The second is the more potent here.

First: CCC(C)Sc1ncccc1-c1cc(F)c(OCCCC(=O)O)c(F)c1 (stereo not shown) [Example 13, 4-[4-(2-sec-butylsulfanyl-pyridin-3-yl)-2,6-difluoro-phenoxy]-butyric acid]
Second: O=C(O)CCCOc1c(F)cc(-c2cccnc2NC2CC2)cc1F [Example 77, 4-[4-[2-(cyclopropylamino)-3-pyridyl]-2,6-difluoro-phenoxy]butanoic acid]
The EC50 of the first is lower: 200 to 2000 nM for the first, > 20000 nM for the second. The first is the more potent here.

Compared with `O=C(O)CCCCOc1ccc(-c2cccnc2SC2CCCC2)cc1F` [Example 265, 5-[4-(2-cyclopentylsulfanyl-pyridin-3-yl)-2-fluoro-phenoxy]-pentanoic acid], `CC(CCC(=O)O)Oc1ccc(-c2cccnc2SC2CCC2)cn1` (stereo not shown) [Example 30, 4-[[5-(2-cyclobutylsulfanyl-3-pyridyl)-2-pyridyl]oxy]pentanoic acid] is higher in EC50: < 200 nM for the first, > 20000 nM for the second.

`O=C(O)CCCOc1c(F)cc(-c2cccnc2OCc2ccco2)cc1F` [Example 220, 4-[2,6-difluoro-4-[2-(2-furylmethoxy)-3-pyridyl]phenoxy]butanoic acid] and `O=C(O)CCCCOc1c(F)cc(-c2cccnc2OC2CC2)cc1F` [Example 197, 5-[4-(2-cyclopropoxy-pyridin-3-yl)-2,6-difluoro-phenoxy]-pentanoic acid] fall in the same range of EC50: 200 to 2000 nM for the first, 200 to 2000 nM for the second.

Compared with `CCCSc1cccc(-c2cc(F)c(OCCCC(=O)O)c(F)c2)n1` [Example 21, 4-[2,6-difluoro-4-(6-propylsulfanyl-2-pyridyl)phenoxy]butyric acid], `CN(c1ccccc1)c1cccc(-c2cc(F)c(OCCCC(=O)O)c(F)c2)n1` [Example 17, 4-[2,6-difluoro-4-[6-(N-methylanilino)-2-pyridyl]phenoxy]butyric acid] is higher in EC50: < 200 nM for the first, 200 to 2000 nM for the second. The first is the more potent here.

First: CC(CCOc1c(F)cc(-c2cccnc2SC2CCC2)cc1F)C(=O)O (stereo not shown) [Example 59, 4-[4-(2-cyclobutylsulfanyl-pyridin-3-yl)-2,6-difluoro-phenoxy]-2-methyl-butyric acid]
Second: O=C(O)CCCCCOc1c(F)cc(-c2cccnc2OC2CCC2)cc1F [Example 271, 6-[4-[2-(cyclobutoxy)-3-pyridyl]-2,6-difluoro-phenoxy]hexanoic acid]
The EC50 of the first is lower: < 200 nM for the first, 200 to 2000 nM for the second. The first is the more potent here.

`O=C(O)CCCOc1c(F)cc(-c2cccc(Nc3ccccc3)n2)cc1F` [Example 16, 4-[4-(6-anilino-2-pyridyl)-2,6-difluoro-phenoxy]butyric acid] and `O=C(O)CCCOc1ccc(-c2ccccc2NCC2CC2)cc1` [Example 85, 4-[4-[2-(cyclopropylmethylamino)phenyl]phenoxy]butanoic acid] fall in the same range of EC50: 200 to 2000 nM for the first, 200 to 2000 nM for the second.

For `C[C@H](CCC(=O)O)Oc1c(F)cc(-c2cccc(OC3CCC3)c2)cc1F` [Example 116, (4R)-4-[4-[3-(cyclobutoxy)phenyl]-2,6-difluoro-phenoxy]pentanoic acid], the EC50 was < 200 nM.
